Like-named read-outs stand apart in the source and are kept apart here. Blank lines part the entries; values can stand above or below the compound they belong to.
How the values were obtained:
several cancer cells = assay: Cell viability MTT assay, several cancer cells; assay type: cell-based; conditions: Homo sapiens, cell line not given, read-out: concentration of half-maximal growth inhibition (GI50)
Procedure: To assess the anticancer potency of these compounds in several cancer cells, we determined the cell toxicities of these compounds using an MTT assay. […] On the other hand, compound 10 has higher cytotoxicity compared to other compounds in various cancer cell lines. […] There is a small difference between standard compounds and compound 10 in growth inhibition of PANC-1 cells.
(§1) The potential cytotoxicity of compounds at different concentrations was evaluated using the MTT assay. Briefly, cancer cell lines were pre-incubated in 96-well plates with compounds for 48 h. Subsequently, MTT working solution (2 mg/mL in phosphate buffer solution) was added to each well and the plate was incubated for 4 h at 37 °C in an atmosphere containing 5% CO2. Then, the conditioned media were aspirated, and the formed formazan crystals in living cells were quantified using the microplate reader (Spectramax M2) at 540 nm. The concentrations that produce 50% cell growth inhibition (GI50) were calculated by curves constructed by the plot of cell survival by an assistant of PRISM software (GraphPad, San Diego, CA).

[1] = tested on: human pancreatic cancer MiaPaCa-2 cells; assay: Cell viability MTT assay, MiaPaCa-2; assay type: cell-based; conditions: MIA PaCa-2, MTT, 48 h, read-out: MiaPaCa-2 (GI50)
Procedure: (§2) The human pancreatic cancer cell lines, PANC-1 and MiaPaCa-2, human lung cancer A549 cells, human breast cancer MCF-7, and human glioma U87 cells were obtained from the Korean cell line bank (Seoul, Korea). The cells were cultured in Dulbecco’s Modified Eagle Medium (DMEM; ThermoFisher Scientific, Waltham, MA) supplemented with 10% fetal bovine serum (FBS; Sigma-Aldrich) and 1% penicillin/streptomycin (ThermoFisher Scientific). The cells were cultured at 37 °C in an atmosphere containing 5% CO2.
as §1

[2] = tested on: human pancreatic cancer PANC-1 cells; assay: Cell viability MTT assay, PANC-1; assay type: cell-based; conditions: Homo sapiens, PANC-1; MTT, 48 h; read-out: PANC-1 (GI50)
Procedure: as §2, §1

[3] = target: T1, purified recombinant human LDHB protein (Homo sapiens, UniProt P07195); assay: In vitro LDHB activity assay (NAD+ converted to NADH); assay type: biochemical; conditions: synthesized compounds; read-out: LDHB IC50
T1 construct: purchased Abcam
T1 sequence (P07195 whole entry): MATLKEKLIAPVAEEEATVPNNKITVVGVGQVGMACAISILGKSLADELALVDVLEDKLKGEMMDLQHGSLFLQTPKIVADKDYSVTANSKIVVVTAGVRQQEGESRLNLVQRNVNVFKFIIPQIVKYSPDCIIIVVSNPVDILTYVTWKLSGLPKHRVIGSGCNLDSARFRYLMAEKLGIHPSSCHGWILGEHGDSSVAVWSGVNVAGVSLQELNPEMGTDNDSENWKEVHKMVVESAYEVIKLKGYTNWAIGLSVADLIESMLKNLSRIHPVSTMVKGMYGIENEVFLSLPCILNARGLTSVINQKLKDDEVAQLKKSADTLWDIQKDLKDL
Procedure: (§3) The in vitro evaluation of the LDHA inhibitor activities of the synthesized compounds was determined by the NADH intensity decrease through oxidation in a solution of HEPES-K^+, NADH, and pyruvate at a pH = 7.2. The NADH oxidation fluorescence intensity was measured using a spectrofluorometer at 340 nm excitation and 460 nm emission wavelengths, representing the NADH-specific fluorescence spectrum. Furthermore, the in vitro evaluation of the LDHB inhibitor activity was determined as a reverse reaction, which converts lactate to pyruvate by determining the amount of NAD^+ converted to NADH using the above-mentioned spectrophotometric experimental setting (Table 2). Based on this analysis, the half-maximal inhibitory concentration (IC50) of the synthesized compounds was obtained.
In vitro analysis was determined the amount of NAD^+ converted to NADH[33]. The assay mixture composed of 100 mM Tris–HCl buffer (pH 8.0), 200 mM sodium L-lactate, 2.5 mM NAD^+, and 100 ng of purified recombinant human LDHB protein (Abcam). The fluorescence intensity of NADH was measured using a spectrofluorometer (Spectramax M2) at 340 nm as excitation wavelength and 460 nm as emission wavelength which is the specific fluorescence of NADH.

[4] = tested on: human lung cancer A549 cells; assay: Cell viability MTT assay, A549; assay type: cell-based; conditions: A549, MTT, 48 h, read-out: A549 (GI50)
Procedure: as §2, §1

[5] = target: T2, purified recombinant human LDHA protein (Homo sapiens, UniProt P00338); assay: In vitro LDHA inhibitor activity (NADH fluorescence decrease); assay type: biochemical; conditions: for LDHB/LDHA: ratio of LDHB IC50 to LDHA IC50 (selectivity); for IC50: synthesized compounds, read-out: LDHA IC50
T2 construct: purchased Abcam
Procedure: as §3
In vitro evaluation on LDHA inhibitor activity. LDHA activity assay was performed in accordance with previous studies[16],[18]. Briefly, the various concentrations of compounds were incubated with reaction buffer containing 20 mM HEPES-K^+, 20 μM NADH, 2 mM pyruvate, and 100 ng of purified recombinant human LDHA protein (Abcam, Cambridge, UK). The fluorescence of NADH, which has an excitation wavelength of 340 nm and an emission wavelength of 460 nm, was detected using a microplate spectrofluorometer (Spectramax M2; Molecular Devices, Sunnyvale, CA).

human glioma U87 cells = assay: Cell viability MTT assay, U87; assay type: cell-based; conditions: U-87 MG, MTT, 48 h, read-out: U87 (GI50)
Procedure: as §2, §1

[6] = tested on: human breast cancer MCF-7; assay: Cell viability MTT assay, MCF-7; assay type: cell-based; conditions: MCF7, MTT, 48 h, read-out: MCF-7 (GI50)
Procedure: as §2, §1

CYP1A2 = target: T3, CYP1A2 (Homo sapiens, UniProt P05177); assay: CYP isozymes activity assay, CYP1A2; assay type: in vitro ADME
T3 construct: Pooled Human liver microsomes (Sigma-Aldrich; 0.25 mg/mL); tissue Sigma-Aldrich; host or cells: pooled human liver microsomes
T3 sequence (P05177 1-516): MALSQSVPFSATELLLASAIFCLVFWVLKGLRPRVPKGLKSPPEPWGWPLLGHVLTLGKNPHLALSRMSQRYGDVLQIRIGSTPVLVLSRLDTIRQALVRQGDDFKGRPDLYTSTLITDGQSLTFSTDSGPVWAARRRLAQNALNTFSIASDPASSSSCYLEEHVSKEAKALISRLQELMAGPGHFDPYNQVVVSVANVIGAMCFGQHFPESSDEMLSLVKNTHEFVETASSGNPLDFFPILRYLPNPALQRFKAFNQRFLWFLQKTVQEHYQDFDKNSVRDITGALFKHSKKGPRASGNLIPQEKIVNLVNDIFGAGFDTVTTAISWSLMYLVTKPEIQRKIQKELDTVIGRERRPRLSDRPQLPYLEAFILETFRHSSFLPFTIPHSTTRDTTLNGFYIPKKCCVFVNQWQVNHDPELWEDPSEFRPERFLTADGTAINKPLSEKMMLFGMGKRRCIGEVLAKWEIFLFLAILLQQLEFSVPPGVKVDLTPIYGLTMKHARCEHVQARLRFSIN
Procedure: (§4) Pooled Human liver microsomes (Sigma-Aldrich; 0.25 mg/mL), 0.1 M phosphate buffer solution (pH 7.4), the five most commonly used substrate cocktails, such as 50 µM phenacetin (CYP1A2), 10 µM diclofenac […], 100 µM S-mephenytoin (CYP2C19) 5 µM dextromethorphan (CYP2D6), and 2.5 µM midazolam (CYP3A4), and compound 10 are pre-incubated at 37 °C for 5 min, then incubated with NADPH generation system solution for 15 min. To finish the enzymatic reaction, an acetonitrile solution (containing terfenadine) is added. The reaction tubes are centrifuged and the supernatant is withdrawn for analysis by LC–MS/MS.

in vitro [7] = assay type: in vitro ADME, human
Procedure: (§5) Human and rat plasma (Sigma-Aldrich) are incubated at 37 °C with test compounds. During the incubation, aliquots are withdrawn at 0, 30, 120 min time points and acetonitrile solution (containing chlorpropamide) is added. After vortexing, the aliquots are centrifuged and the supernatant is withdrawn for analysis by LC–MS/MS.

[8] = Human liver microsomal stability; assay type: in vitro ADME; conditions: microsomes, pH 7.4
Procedure: (§6) To finish the reaction, an acetonitrile solution (involved in chlorpropamide) is added. The reaction tubes are centrifuged and the supernatant is withdrawn for analysis by LC–MS/MS.

in vitro [9] = assay type: in vitro ADME; conditions: rat, microsomes, pH 7.4
Procedure: as §6

CYP3A4 = target: T4, CYP3A4 (Homo sapiens, UniProt P08684); assay: CYP isozymes activity assay, CYP3A4; assay type: in vitro ADME; conditions: microsomes, 0.1 µM
T4 construct: Pooled Human liver microsomes (Sigma-Aldrich; 0.25 mg/mL); tissue Sigma-Aldrich; host or cells: pooled human liver microsomes
T4 sequence (P08684 whole entry): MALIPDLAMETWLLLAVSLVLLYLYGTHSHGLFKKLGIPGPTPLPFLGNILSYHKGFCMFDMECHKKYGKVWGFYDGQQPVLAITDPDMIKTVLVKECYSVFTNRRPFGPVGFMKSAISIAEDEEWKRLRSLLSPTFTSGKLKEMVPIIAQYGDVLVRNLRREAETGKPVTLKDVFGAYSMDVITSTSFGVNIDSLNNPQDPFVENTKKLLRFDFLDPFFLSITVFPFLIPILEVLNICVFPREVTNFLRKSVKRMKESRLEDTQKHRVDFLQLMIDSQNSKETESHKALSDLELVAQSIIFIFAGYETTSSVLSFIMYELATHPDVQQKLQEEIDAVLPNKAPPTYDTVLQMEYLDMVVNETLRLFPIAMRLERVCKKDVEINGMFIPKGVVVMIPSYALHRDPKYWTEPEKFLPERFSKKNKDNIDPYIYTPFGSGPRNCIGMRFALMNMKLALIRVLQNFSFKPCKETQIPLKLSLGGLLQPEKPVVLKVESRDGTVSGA
Procedure: as §4

CYP2C9 = target: T5, CYP2C9 (Homo sapiens, UniProt P11712); assay: CYP isozymes activity assay, CYP2C9; assay type: in vitro ADME
T5 construct: Pooled Human liver microsomes (Sigma-Aldrich; 0.25 mg/mL); tissue Sigma-Aldrich; host or cells: pooled human liver microsomes
T5 sequence (P11712 whole entry): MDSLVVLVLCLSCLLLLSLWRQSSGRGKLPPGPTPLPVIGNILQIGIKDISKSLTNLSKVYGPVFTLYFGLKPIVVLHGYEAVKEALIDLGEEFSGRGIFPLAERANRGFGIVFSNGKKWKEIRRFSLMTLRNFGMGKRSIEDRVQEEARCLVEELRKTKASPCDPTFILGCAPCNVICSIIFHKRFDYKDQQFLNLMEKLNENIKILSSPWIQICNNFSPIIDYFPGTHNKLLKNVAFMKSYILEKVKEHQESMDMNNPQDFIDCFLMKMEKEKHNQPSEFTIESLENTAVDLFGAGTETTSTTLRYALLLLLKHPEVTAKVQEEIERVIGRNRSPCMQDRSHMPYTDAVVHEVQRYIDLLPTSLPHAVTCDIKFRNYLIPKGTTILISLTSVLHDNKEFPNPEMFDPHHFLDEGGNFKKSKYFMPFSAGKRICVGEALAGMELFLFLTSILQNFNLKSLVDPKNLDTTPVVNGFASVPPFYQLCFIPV
Procedure: as §4

CYP2C19 = target: T6, CYP2C19 (Homo sapiens, UniProt P33261); assay: CYP isozymes activity assay, CYP2C19; assay type: in vitro ADME
T6 construct: Pooled Human liver microsomes (Sigma-Aldrich; 0.25 mg/mL); tissue Sigma-Aldrich; host or cells: pooled human liver microsomes
T6 sequence (P33261 whole entry): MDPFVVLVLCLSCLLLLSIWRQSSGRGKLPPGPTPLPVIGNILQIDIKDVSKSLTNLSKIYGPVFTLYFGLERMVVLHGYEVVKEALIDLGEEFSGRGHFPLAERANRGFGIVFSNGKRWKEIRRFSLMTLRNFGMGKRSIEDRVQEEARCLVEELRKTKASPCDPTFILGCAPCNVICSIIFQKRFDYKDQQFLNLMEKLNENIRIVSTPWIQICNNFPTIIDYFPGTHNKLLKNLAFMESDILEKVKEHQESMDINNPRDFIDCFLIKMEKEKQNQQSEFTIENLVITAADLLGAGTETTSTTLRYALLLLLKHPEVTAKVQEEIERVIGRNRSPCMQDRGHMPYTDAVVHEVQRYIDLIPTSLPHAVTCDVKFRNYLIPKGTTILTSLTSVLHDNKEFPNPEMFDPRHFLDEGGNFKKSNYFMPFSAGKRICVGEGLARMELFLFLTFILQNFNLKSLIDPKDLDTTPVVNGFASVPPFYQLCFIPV
Procedure: as §4

CYP2D6 = target: T7, CYP2D6 (Homo sapiens, UniProt P10635); assay: CYP isozymes activity assay, CYP2D6; assay type: in vitro ADME; conditions: microsomes, 0.1 µM
T7 construct: Pooled Human liver microsomes (Sigma-Aldrich; 0.25 mg/mL); tissue Sigma-Aldrich; host or cells: pooled human liver microsomes
T7 sequence (P10635 whole entry): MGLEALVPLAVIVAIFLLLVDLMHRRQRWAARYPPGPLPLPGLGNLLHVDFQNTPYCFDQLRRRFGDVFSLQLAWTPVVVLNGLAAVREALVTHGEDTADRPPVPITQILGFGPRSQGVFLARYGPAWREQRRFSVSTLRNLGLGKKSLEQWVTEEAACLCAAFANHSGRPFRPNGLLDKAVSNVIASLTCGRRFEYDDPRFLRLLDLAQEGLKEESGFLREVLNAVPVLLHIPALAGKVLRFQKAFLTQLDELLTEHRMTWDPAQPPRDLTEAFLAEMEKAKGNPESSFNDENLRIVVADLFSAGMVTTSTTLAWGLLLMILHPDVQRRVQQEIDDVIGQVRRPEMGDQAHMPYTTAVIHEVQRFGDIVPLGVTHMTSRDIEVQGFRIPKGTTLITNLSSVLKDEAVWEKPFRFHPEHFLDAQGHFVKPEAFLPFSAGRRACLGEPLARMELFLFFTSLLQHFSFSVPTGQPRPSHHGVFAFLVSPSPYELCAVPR
Procedure: as §4

in vitro [10] = assay type: in vitro ADME, rat
Procedure: as §5

GI50 (several cancer cells): > 1000 µM
GI50 [1]: > 1000 µM
GI50 [2]: > 1000 µM
IC50 [3]: 395 µM
GI50 [4]: > 1000 µM
LDHB/LDHA [5]: 29.00
IC50 [5]: 13.6 µM
GI50 (human glioma U87 cells): > 1000 µM
GI50 [6]: > 1000 µM
SMILES: O=C(OCc1ccc2c(c1)OCO2)c1ccc(C(F)(F)F)cc1 [Compound 2]

CYP1A2 isozyme activity (% of control activity) (CYP1A2; microsomes, 0.1 µM): 36.7 % of control activity
plasma stability (in words) (in vitro [7]): stable
remaining at 0.5 h (in vitro [7]; human, plasma): 98.1%
remaining at 2 h (in vitro [7]; human, plasma): 91.6%
remaining at 0.5 h, 1 µM [8]: 9.5%
remaining at 0.5 h, 1 µM (in vitro [9]): 5.2%
GI50 [1]: 88.9 µM
CYP3A4 isozyme activity (% of control activity) (CYP3A4): > 100 % of control activity
CYP2C9 isozyme activity (% of control activity) (CYP2C9; microsomes, 0.1 µM): 97.4 % of control activity
GI50 [2]: 12.2 µM
CYP2C19 isozyme activity (% of control activity) (CYP2C19; microsomes, 0.1 µM): 12.1 % of control activity
IC50 [3]: > 1000 µM
CYP2D6 isozyme activity (% of control activity) (CYP2D6): 95.1 % of control activity
GI50 [4]: 56.5 µM
plasma stability (in words) (in vitro [10]): stable
remaining at 0.5 h (in vitro [10]; rat, plasma): 93.8%
remaining at 2 h (in vitro [10]; rat, plasma): 87.5%
LDHB/LDHA [5]: > 21.18
IC50 [5]: 47.2 µM
GI50 (human glioma U87 cells): 343 µM
GI50 [6]: 61.4 µM
SMILES: FC(F)(F)c1ccc(Sc2nc3ccccc3s2)cc1 [Compound 10]

SMILES: CC(=O)N1CCN(c2ccc(OCC3COC(Cn4ccnc4)(c4ccc(Cl)cc4Cl)O3)cc2)CC1 (stereo not drawn) [Ketoconazole, reference compound]
CYP1A2 isozyme activity (% of control activity) (CYP1A2; pooled human liver microsomes, phenacetin, ketoconazole at 0.1 µM): 99.1 % of control activity
CYP2C9 isozyme activity (% of control activity) (CYP2C9; pooled human liver microsomes, diclofenac, ketoconazole at 0.1 µM): 97.5 % of control activity
CYP2C19 isozyme activity (% of control activity) (CYP2C19; pooled human liver microsomes, S-mephenytoin, ketoconazole at 0.1 µM): > 100 % of control activity

From PMC7669867, “Synthesis and initial screening of lactate dehydrogenase inhibitor activity of 1,3-benzodioxole derivatives” (Scientific Reports, 2020)
